Results from patent US20220213047A1, “CARBONIC ANHYDRASE INHIBITORS FOR TREATMENT OF NEISSERIA GONORRHOEAE INFECTION” (Purdue Research Foundation, priority 2021, published 2022).
In brackets after ≈: the same amount, converted by molar mass.

What was measured:
[1] = tested on: N. gonorrhoeae; assay: MIC against N. gonorrhoeae clinical isolates, normal and CO2 conditions; format: cell-based; conditions: Neisseria gonorrhoeae
Procedure: (§1) These tests were performed in normal culture conditions with standard CO2 levels and in CO2 (5% in incubator) conditions.

[2] = tested on: N. gonorrhoeae; assay: MIC by agar dilution on a larger panel of N. gonorrhoeae strains; format: cell-based, Neisseria gonorrhoeae; conditions: Neisseria gonorrhoeae
Procedure: as §1

[3] = strain panel of Table 9, CO2 (5% CO2 containing air)

## NS(=O)(=O)c1cc(Cl)c(Cl)c(S(N)(=O)=O)c1 [Dichlorphenamide]
[1]; N. gonorrhoeae 178, Non CO2 environment
  MIC: 2 µg/mL (≈ 6.55 µM)
[1]; N. gonorrhoeae 178, normal growth environment (with CO2)
  MIC: > 64 µg/mL
[1]; N. gonorrhoeae 181, Non CO2 environment
  MIC: 8 µg/mL (≈ 26.2 µM)
[1]; N. gonorrhoeae 181, normal growth environment (with CO2)
  MIC: > 64 µg/mL
[1]; N. gonorrhoeae 194, Non CO2 environment
  MIC: 4 µg/mL (≈ 13.1 µM)
[1]; N. gonorrhoeae 194, normal growth environment (with CO2)
  MIC: > 64 µg/mL
[2]; N. gonorrhoeae 165, CO2 (5% CO2 containing air), read-out: MIC
  MIC: > 128 µg/mL
[2]; N. gonorrhoeae 165, Non CO2 (ambient air), read-out: MIC
  MIC: 2 µg/mL (≈ 6.55 µM)
[2]; N. gonorrhoeae 166, CO2 (5% CO2 containing air), read-out: MIC
  MIC: > 128 µg/mL
[2]; N. gonorrhoeae 166, Non CO2 (ambient air), read-out: MIC
  MIC: 8 µg/mL (≈ 26.2 µM)
[2]; N. gonorrhoeae 167, CO2 (5% CO2 containing air), read-out: MIC
  MIC: > 128 µg/mL
[2]; N. gonorrhoeae 167, Non CO2 (ambient air), read-out: MIC
  MIC: 4 µg/mL (≈ 13.1 µM)
[2]; N. gonorrhoeae 170, CO2 (5% CO2 containing air), read-out: MIC
  MIC: > 128 µg/mL
[2]; N. gonorrhoeae 170, Non CO2 (ambient air), read-out: MIC
  MIC: 64 µg/mL (≈ 210 µM)
[2]; N. gonorrhoeae 171, CO2 (5% CO2 containing air), read-out: MIC
  MIC: > 128 µg/mL
[2]; N. gonorrhoeae 171, Non CO2 (ambient air), read-out: MIC
  MIC: 1 µg/mL (≈ 3.28 µM)
[2]; N. gonorrhoeae 173, CO2 (5% CO2 containing air), read-out: MIC
  MIC: > 128 µg/mL
[2]; N. gonorrhoeae 173, Non CO2 (ambient air), read-out: MIC
  MIC: 2 µg/mL (≈ 6.55 µM)
[2]; N. gonorrhoeae 174, CO2 (5% CO2 containing air), read-out: MIC
  MIC: > 128 µg/mL
[2]; N. gonorrhoeae 174, Non CO2 (ambient air), read-out: MIC
  MIC: 2 µg/mL (≈ 6.55 µM)
[2]; N. gonorrhoeae 175, CO2 (5% CO2 containing air), read-out: MIC
  MIC: > 128 µg/mL
[2]; N. gonorrhoeae 175, Non CO2 (ambient air), read-out: MIC
  MIC: 16 µg/mL (≈ 52.4 µM)
[2]; N. gonorrhoeae 176, CO2 (5% CO2 containing air), read-out: MIC
  MIC: > 128 µg/mL
[2]; N. gonorrhoeae 176, Non CO2 (ambient air), read-out: MIC
  MIC: 4 µg/mL (≈ 13.1 µM)
[2]; N. gonorrhoeae 177, CO2 (5% CO2 containing air), read-out: MIC
  MIC: 128 µg/mL (≈ 419 µM)
[2]; N. gonorrhoeae 177, Non CO2 (ambient air), read-out: MIC
  MIC: 4 µg/mL (≈ 13.1 µM)
[2]; N. gonorrhoeae 178, CO2 (5% CO2 containing air), read-out: MIC
  MIC: > 128 µg/mL
[2]; N. gonorrhoeae 178, Non CO2 (ambient air), read-out: MIC
  MIC: 1 µg/mL (≈ 3.28 µM)
[2]; N. gonorrhoeae 179, CO2 (5% CO2 containing air), read-out: MIC
  MIC: > 128 µg/mL
[2]; N. gonorrhoeae 179, Non CO2 (ambient air), read-out: MIC
  MIC: 8 µg/mL (≈ 26.2 µM)
[2]; N. gonorrhoeae 180, CO2 (5% CO2 containing air), read-out: MIC
  MIC: > 128 µg/mL
[2]; N. gonorrhoeae 180, Non CO2 (ambient air), read-out: MIC
  MIC: 8 µg/mL (≈ 26.2 µM)
[2]; N. gonorrhoeae 181, CO2 (5% CO2 containing air), read-out: MIC
  MIC: 128 µg/mL (≈ 419 µM)
[2]; N. gonorrhoeae 181, Non CO2 (ambient air), read-out: MIC
  MIC: 8 µg/mL (≈ 26.2 µM)
[2]; N. gonorrhoeae 182, CO2 (5% CO2 containing air), read-out: MIC
  MIC: > 128 µg/mL
[2]; N. gonorrhoeae 182, Non CO2 (ambient air), read-out: MIC
  MIC: 16 µg/mL (≈ 52.4 µM)
[2]; N. gonorrhoeae 183, CO2 (5% CO2 containing air), read-out: MIC
  MIC: 128 µg/mL (≈ 419 µM)
[2]; N. gonorrhoeae 183, Non CO2 (ambient air), read-out: MIC
  MIC: 1 µg/mL (≈ 3.28 µM)
[2]; N. gonorrhoeae 184, CO2 (5% CO2 containing air), read-out: MIC
  MIC: > 128 µg/mL
[2]; N. gonorrhoeae 184, Non CO2 (ambient air), read-out: MIC
  MIC: 4 µg/mL (≈ 13.1 µM)
[2]; N. gonorrhoeae 185, CO2 (5% CO2 containing air), read-out: MIC
  MIC: > 128 µg/mL
[2]; N. gonorrhoeae 185, Non CO2 (ambient air), read-out: MIC
  MIC: 8 µg/mL (≈ 26.2 µM)
[2]; N. gonorrhoeae 186, CO2 (5% CO2 containing air), read-out: MIC
  MIC: > 128 µg/mL
[2]; N. gonorrhoeae 186, Non CO2 (ambient air), read-out: MIC
  MIC: 8 µg/mL (≈ 26.2 µM)
[2]; N. gonorrhoeae 188, CO2 (5% CO2 containing air), read-out: MIC
  MIC: > 128 µg/mL
[2]; N. gonorrhoeae 188, Non CO2 (ambient air), read-out: MIC
  MIC: 1 µg/mL (≈ 3.28 µM)
[2]; N. gonorrhoeae 191, CO2 (5% CO2 containing air), read-out: MIC
  MIC: > 128 µg/mL
[2]; N. gonorrhoeae 191, Non CO2 (ambient air), read-out: MIC
  MIC: 4 µg/mL (≈ 13.1 µM)
[2]; N. gonorrhoeae 193, CO2 (5% CO2 containing air), read-out: MIC
  MIC: 128 µg/mL (≈ 419 µM)
[2]; N. gonorrhoeae 193, Non CO2 (ambient air), read-out: MIC
  MIC: 4 µg/mL (≈ 13.1 µM)
[2]; N. gonorrhoeae 194, CO2 (5% CO2 containing air), read-out: MIC
  MIC: 128 µg/mL (≈ 419 µM)
[2]; N. gonorrhoeae 194, Non CO2 (ambient air), read-out: MIC
  MIC: 4 µg/mL (≈ 13.1 µM)
[2]; N. gonorrhoeae 196, CO2 (5% CO2 containing air), read-out: MIC
  MIC: > 128 µg/mL
[2]; N. gonorrhoeae 196, Non CO2 (ambient air), read-out: MIC
  MIC: 1 µg/mL (≈ 3.28 µM)
[2]; N. gonorrhoeae 197, CO2 (5% CO2 containing air), read-out: MIC
  MIC: > 128 µg/mL
[2]; N. gonorrhoeae 197, Non CO2 (ambient air), read-out: MIC
  MIC: 4 µg/mL (≈ 13.1 µM)
[2]; N. gonorrhoeae 198, CO2 (5% CO2 containing air), read-out: MIC
  MIC: > 128 µg/mL
[2]; N. gonorrhoeae 198, Non CO2 (ambient air), read-out: MIC
  MIC: 1 µg/mL (≈ 3.28 µM)
[2]; N. gonorrhoeae 200, CO2 (5% CO2 containing air), read-out: MIC
  MIC: > 128 µg/mL
[2]; N. gonorrhoeae 200, Non CO2 (ambient air), read-out: MIC
  MIC: 32 µg/mL (≈ 105 µM)
[2]; N. gonorrhoeae 202, CO2 (5% CO2 containing air), read-out: MIC
  MIC: > 128 µg/mL
[2]; N. gonorrhoeae 202, Non CO2 (ambient air), read-out: MIC
  MIC: 16 µg/mL (≈ 52.4 µM)
[2]; N. gonorrhoeae 203, CO2 (5% CO2 containing air), read-out: MIC
  MIC: > 128 µg/mL
[2]; N. gonorrhoeae 203, Non CO2 (ambient air), read-out: MIC
  MIC: 1 µg/mL (≈ 3.28 µM)
[2]; N. gonorrhoeae 205, CO2 (5% CO2 containing air), read-out: MIC
  MIC: > 128 µg/mL
[2]; N. gonorrhoeae 205, Non CO2 (ambient air), read-out: MIC
  MIC: 16 µg/mL (≈ 52.4 µM)
[2]; N. gonorrhoeae 206, CO2 (5% CO2 containing air), read-out: MIC
  MIC: > 128 µg/mL
[2]; N. gonorrhoeae 206, Non CO2 (ambient air), read-out: MIC
  MIC: 4 µg/mL (≈ 13.1 µM)
[2]; N. gonorrhoeae 207, CO2 (5% CO2 containing air), read-out: MIC
  MIC: > 128 µg/mL
[2]; N. gonorrhoeae 207, Non CO2 (ambient air), read-out: MIC
  MIC: 4 µg/mL (≈ 13.1 µM)
[2]; N. gonorrhoeae 208, CO2 (5% CO2 containing air), read-out: MIC
  MIC: > 128 µg/mL
[2]; N. gonorrhoeae 208, Non CO2 (ambient air), read-out: MIC
  MIC: 4 µg/mL (≈ 13.1 µM)
[2]; N. gonorrhoeae 209, CO2 (5% CO2 containing air), read-out: MIC
  MIC: > 128 µg/mL
[2]; N. gonorrhoeae 209, Non CO2 (ambient air), read-out: MIC
  MIC: 1 µg/mL (≈ 3.28 µM)
[2]; N. gonorrhoeae 210, CO2 (5% CO2 containing air), read-out: MIC
  MIC: > 128 µg/mL
[2]; N. gonorrhoeae 210, Non CO2 (ambient air), read-out: MIC
  MIC: 4 µg/mL (≈ 13.1 µM)
[2]; N. gonorrhoeae 211, CO2 (5% CO2 containing air), read-out: MIC
  MIC: > 64 µg/mL
[2]; N. gonorrhoeae 211, Non CO2 (ambient air), read-out: MIC
  MIC: 1 µg/mL (≈ 3.28 µM)
[2]; N. gonorrhoeae 212, CO2 (5% CO2 containing air), read-out: MIC
  MIC: > 128 µg/mL
[2]; N. gonorrhoeae 212, Non CO2 (ambient air), read-out: MIC
  MIC: 32 µg/mL (≈ 105 µM)
[2]; N. gonorrhoeae 213, CO2 (5% CO2 containing air), read-out: MIC
  MIC: > 128 µg/mL
[2]; N. gonorrhoeae 213, Non CO2 (ambient air), read-out: MIC
  MIC: 16 µg/mL (≈ 52.4 µM)
[2]; N. gonorrhoeae 214, CO2 (5% CO2 containing air), read-out: MIC
  MIC: > 128 µg/mL
[2]; N. gonorrhoeae 214, Non CO2 (ambient air), read-out: MIC
  MIC: 1 µg/mL (≈ 3.28 µM)
[2]; [3]
  MIC50: > 128 µg/mL
  MIC90: > 128 µg/mL
[2]; strain panel of Table 9, CO2 (5% CO2 containing air), read-out: Modal MIC
  MIC: > 128 µg/mL
[2]; strain panel of Table 9, Non CO2 (ambient air)
  MIC50: 4 µg/mL (≈ 13.1 µM)
[2]; strain panel of Table 9, Non CO2 (ambient air), read-out: Modal MIC
  MIC: 4 µg/mL (≈ 13.1 µM)
[2]; strain panel of Table 9, Non CO2 (ambient air, standard CO2 conditions)
  MIC90: 16 µg/mL (≈ 52.4 µM)
